Reference: patent US8349571B2, “High content screening” (Cellaura Technologies Limited, priority 2004, dated 2013)

Assays:
Type in all cases: cell-based
[1] = target: T1, human A1-AR (Homo sapiens, UniProt P30542); assay: Live cell confocal imaging of fluorescent ligand binding in CHO-A1 cells; settings: 100 nM BY630-ABEA
T1 construct: expressed in transfected cells; host or cells: CHO-K1 (CHO-A1fos)
T1 sequence (P30542 1-326): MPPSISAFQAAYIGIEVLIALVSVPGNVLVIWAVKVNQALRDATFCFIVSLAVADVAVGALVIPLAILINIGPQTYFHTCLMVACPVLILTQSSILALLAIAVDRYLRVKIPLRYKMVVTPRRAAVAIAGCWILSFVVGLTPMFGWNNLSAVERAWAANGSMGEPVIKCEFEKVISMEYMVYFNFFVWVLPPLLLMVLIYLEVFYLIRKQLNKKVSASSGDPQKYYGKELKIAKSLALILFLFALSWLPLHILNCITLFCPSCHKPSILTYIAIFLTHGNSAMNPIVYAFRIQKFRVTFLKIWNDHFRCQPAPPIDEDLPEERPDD
Protocol: (§1) Functional studies were performed in CHO-K1 cells expressing both the human A1-AR and a c-fos-pGL3 reporter vector (CHO-A1fos cells). […] Luciferase expression was quantified using a Luclite® kit according to manufacturer's instructions. Live cell confocal imaging was carried out on CHO-A1 cells or CHO cells expressing the A1-AR tagged on the C-terminus with a green fluorescent protein (CHO-A1Tpz).

[2] = target: T1, human A1-AR; assay: c-fos-pGL3 luciferase reporter functional study in CHO-A1fos cells
Protocol: as §1

[3] = target: T2, A1-AR tagged on the C-terminus with a green fluorescent protein (Homo sapiens, UniProt P30542); assay: Live cell confocal imaging in CHO cells expressing A1-AR tagged with green fluorescent protein (CHO-A1Tpz)
T2 construct: expressed in transfected cells; host or cells: CHO (CHO-A1Tpz)
T2 sequence (P30542 1-326): T1 sequence (P30542 1-326)
Protocol: as §1

CCCn1c(=O)c2[nH]c(C3CCCC3)nc2n(CCC)c1=O [DPCPX, 8-cyclopentyl-1,3-dipropylxanthine, reference compound]
effect of preincubation on BY630-ABEA membrane binding ([1]; DPCPX 1 μM, 30 min preincubation): substantially reduced | effect on the response to BY630-ABEA ([2]; 100 nM DPCPX, n=3): completely blocked the response to BY630-ABEA

NECA-BODIPY 630/650 [BY630-ABEA]
time after which binding of ligand to the membrane was detectable ([1]; CHO-A1 cells, n=3): 5 min | time after which binding of ligand to the membrane was substantial ([1]; CHO-A1 cells, n=3): 30 min | pEC50, stimulation of luciferase expression ([2]; CHO-A1fos cells, 5 h agonist stimulation, mean s.e.mean): 6.76±0.18 | specificity of ligand binding from overlaid red and green channel images (FIG. 4B) ([3]; 100 nM, 30′, CHO cells (A1-R-Topaz)): ligand binding is specific to receptors | co-localisation of ligand fluorescence with tagged receptor ([3]; CHO-A1Tpz cells): co-localisation of ligand fluorescence at the membrane with that from the fluorescently tagged A1-AR

XAC-BODIPY 630/650 [BODIPY-XAC]
specificity of ligand binding from overlaid red and green channel images (FIG. 4A) ([3]; 50 nM, 15′, CHO cells (A1-R-Topaz)): ligand binding is specific to receptors
